Experimental findings from patent publication US20030186954A1, “Estriol to treat and prevent cardiovascular disease” (priority 2002, published 2003) are described below.

Where two headings read alike, the source gives them in different places.

In data set [1] the test system is coronary arteries of ovariectomized female rhesus monkeys (serotonin + U46619 induced vasospasm). The experiment in a line: Drug-induced (serotonin + U46619) coronary vasospasm in ovariectomized rhesus monkeys, angiography. The class given is in vivo, rhesus monkeys (Macaca mulatta). The following applies: for Monkeys suffering a vasospasm during the study: estriol cream treated ovariectomized monkeys, 12 step intracoronary serotonin+U46619 injection protocol. The procedure:
The monkeys were entered into the study no less than 3 months after ovariectomy.
Angiography at the Dotter Institute, after overnight fasting, began with preanesthesia with ketamine (10 mg/kg body weight intramuscular), intubation with an endotracheal tube and a light surgical plane of anesthesia with isoflurane (induced at 1.5% to 3% maintained at 0.75% to 1.25%), vaporized with 33% nitrous oxide and 67% oxygen, or with 100% oxygen. Bilateral femoral intraarterial 3F catheters allowed for coronary catheterization and continuous recording of systemic arterial blood pressure and heart rate, which were maintained close to the initial anesthetic value for each monkey. Intravenous heparin (1,000 U) was injected, and up to 120 ml of pyruvated Ringer's solution and 0 to 50 ml of dextran solution were used (as needed) to maintain diastolic blood pressure ≧60 mm Hg. A heating pad assisted in maintenance of a body temperature decrease ≦2° C. of preanesthesia body temperature (monitored by rectal thermometer). An electrocardiogram (ECG) recorded on a Gould eight-channel recorder, cutaneous arterial oxygen saturation, respiratory rate and end-tidal CO2 were also monitored.
Entire experiments were recorded on videotape (with episodic fluoroscopic imaging and continuous voice annotation) to permit computerized quantitative coronary angiography. […]
Placement of the 3F catheter (except as noted later) was adjusted to provide sufficient filling with radio-opaque contrast medium, limited reflux and isolation of a branch of the coronary arterial tree. […] Fluoroscopic images were recorded on film using an OEC model 9800 digital x-ray system with fluoroscopic C-arm, digitally recorded, and evaluated in subsequent analysis. All procedures including a brief 0.2 ml injection of Hexabrix for optimal quantitative angiography were recorded on videotape for subsequent computer analysis. […]
After 4 weeks of daily treatment with 0.2 mg/kg of the estriol topical cream, the monkeys were studied by coronary catheterization, and reactivity was assessed by injection of serotonin (100 μM) and U46619 (1 μM).

Data set [2] can be described thus: Levels of estriol in saliva of human volunteers treated with skin cream. The settings on record: topical; for concentration at 24 h: human volunteers, 24 hours after second application, read-out: Salivary concentration of estriol (group average). The class given is in vivo. As for the experimental part:
Four human volunteers applied one of three estriol skin cream formulations in a base of polyethylene glycol, sorbitol, and water. The formulations were as described above in Example 3, except that one formulation contained 0.1% estriol, a second formulation contained 0.5% estriol, and a third contained 1% estriol. Each volunteer applied […] of one of the formulations daily for 2 days for a total applied dosage of 4 mg, 20 mg, and 40 mg of estriol, respectively.
Concentrations of estriol in saliva was measured 24 hours after the second application of the estriol cream formulations. The group that applied the 0.1% estriol averaged a salivary concentration of about 300 pg/ml. The 0.5% group averaged about 1500 pg/ml. The 1%group averaged about 4000 pg/ml.
In addition, salivary concentration of estriol was measured ten minutes following the application of 20 mg of estriol in skin cream. A concentration of 10 ng/ml was found, indicating rapid absorption.

The nature of data set [3]: Steroid levels in plasma and urine of estriol cream treated monkeys. The settings on record: urine collected just prior to cardiac catheterization after 4 weeks daily 0.3% estriol topical cream; n = 5.

In the case of `C[C@]12CC[C@@H]3c4ccc(O)cc4CC[C@H]3[C@@H]1C[C@@H](O)[C@@H]2O` [Estriol], the “Monkeys suffering a vasospasm during the study” value in data set [1] was “None of the monkeys”; in data set [1] (listed as E3) it was “none of the E3 treated monkeys showed a vasospasm”. Moreover, the “Vasospasm criteria met (incidence)” value in data set [1] (ovariectomized monkeys, 4 weeks daily 0.3% estriol topical cream (0.2 mg/kg), intracoronary serotonin 100 μM + U46619 1 μM, criteria <33% of control diameter for >5 minutes) is reported as 0/6. For the same molecule, the concentration at 24 h in data set [2] (0.1% estriol skin cream, 4 ml daily for 2 days (4 mg)) was approximately 0.3 ng/mL; in data set [2] (0.5% estriol skin cream, 4 ml daily for 2 days (20 mg)), approximately 1.5 ng/mL; in data set [2] (1% estriol skin cream, 4 ml daily for 2 days (40 mg)), approximately 4 ng/mL. The concentration at 10 min in data set [2] (human, ten minutes following application of 20 mg of estriol in skin cream, read-out: Salivary concentration of estriol) came to 10 ng/mL. Besides, the “E3 absorbed, urine (total)” value in data set [3] is on record as “***2412 +/− 316 (n = 5) ng/ml”.
